Experimental data reported in patent US20240299277A1, “COMPOSITION FOR IMPROVING SKIN” (LG HOUSEHOLD & HEALTH CARE LTD., priority 2020, published 2024).

What was measured:
[1] = test system: human-derived fibroblasts; assay: Collagen synthesis promotion in fibroblasts (Procollagen 1α1 ELISA); assay type: cell-based; conditions: each component 3 μg/mL (3 ppm); 24 hours; medium without FBS; relative to methanol negative control; average of three
Experimental: A mixture of DMEM and 10% FBS was used as a basal medium for culturing human-derived fibroblasts. Skin fibroblasts were dispensed in a 48-well plate at a concentration of 2-5×10^4 cells/mL and cultured for 24 hours. The basal medium with growth factors was removed, and a medium (a medium to which FBS was not added) having a final concentration of 3 μg/mL (3 ppm) of each component of Comparative Examples 1 to 4 and Examples 1 to 6 was added and cultured for 24 hours. A positive control for inducing collagen synthesis was treated with TGF-β to be 5 ng/mL (5 ppb) (positive control in Table 4). A cell culture solution was taken and synthesized collagen was measured using a Human Procollagen 1α1 Duoset ELISA Kit (R&D Systems) and a spectrophotometer.
A calibration curve was created by measuring the separated and purified collagen at concentrations of 0.25, 0.5, 1, 2, 4, and 8 ng/mL, and based on this, the collagen (Type I collagen) production amounts of Comparative Examples 1 to 4 and Examples 1 to 6, a negative control group, and a positive control group were calculated. The collagen production amount was calculated using a collagen production rate (%) relative to the group treated with methanol (negative control group) (Equation 2 below), and the experiment was performed three times, and then an average value was calculated and shown in Table 4.

MNT-1 melanoma cells = assay: Inhibition of melanin production in MNT-1 melanoma cells; assay type: cell-based; conditions: each component 3 μg/mL (3 ppm); 72 hours; relative to methanol negative control; average of three
Experimental: To culture MNT-1 melanoma cells, a mixture of Dulbecco's Modified Eagle's Medium (DMEM) and 10% fetal bovine serum (FBS) was used as a basal medium. MNT-1 melanoma cells were dispensed in a 6-well plate at a concentration of 1-2×10^5 cells/mL and cultured for 24 hours. Samples were treated so that the final concentration of each component of Comparative Examples 1 to 4 and Examples 1 to 6 was 3 μg/mL (3 ppm), and then cultured for 72 hours. As a positive control, arbutin was treated to be 200 μg/mL (200 ppm) (positive control in Table 3). Thereafter, the cells were treated with trypsin, detached from the culture vessel, centrifuged at 13,000 rpm for 1 minute, and then the supernatant was removed. Cells were lysed by adding 300 μL of a 0.5% Triton X-100 solution to the remaining cells. This was again centrifuged at 13,000 rpm for 3 minutes to recover the pellet and supernatant separately. Melanin in the pellet was dissolved by adding 100 μL of a 0.5 N sodium hydroxide solution and incubating for 12 hours, and absorbance at 450 nm was measured using a spectrophotometer to measure the total amount of melanin produced.
The total amount of inhibited melanin production was calculated as a melanin production inhibition rate (%) relative to a group (negative control group) treated with methanol (Equation 1 below), and the experiment was performed three times, and then an average value was calculated and shown in Table 3.

Human skin keratinocytes = assay: Hyaluronic acid synthesis promotion in keratinocytes (Hyaluronan ELISA); assay type: cell-based; conditions: each component 3 μg/mL (3 ppm); 24 hours; medium without EGF and BPE; relative to methanol negative control; average of three
Experimental: Human skin keratinocytes (primary cultured human skin keratinocytes) were purchased from Thermo Fisher Scientific and cultured using Keratinocyte-SFM supplemented with epidermal growth factor (EGF), which is a growth factor, and bovine pituitary extract (BPE). The keratinocytes were dispensed in a 60-mm culture plate at a concentration of 2-5×10^5 cells/mL and cultured for 24 hours. The basal medium with growth factors was removed, and a medium (a medium to which EGF and BPE were not added) having a final concentration of 3 μg/mL (3 ppm) of each component of Comparative Examples 1 to 4 and Examples 1 to 6 was added and cultured for 24 hours. A positive control for inducing hyaluronic acid synthesis was treated with all-trans-retinoic acid to be 100 nM (positive control in Table 5). A cell culture solution was taken and synthesized hyaluronic acid was measured using a Hyaluronan DuoSet ELISA Kit (R&D Systems) and a spectrophotometer.
A calibration curve was created by measuring standard hyaluronic acid at concentrations of 1.1, 3.3, 10, 30, and 90 ng/mL, and based on this, the hyaluronic acid production amounts of Comparative Examples 1 to 4 and Examples 1 to 6, a negative control group, and […] were calculated. The hyaluronic acid production amount was calculated using a hyaluronic acid production rate (%) relative to the group treated with methanol (negative control group) (Equation 2 below), and the experiment was performed three times, and then an average value was calculated and shown in Table 5.

[2] = Free radical scavenging ability by DPPH method; assay type: biochemical; conditions: each component 0.5 mg/mL in methanol; DPPH 0.12 mM; 1 hour; absorbance 517 nm; average of three
Experimental: In Comparative Examples 1 to 4 and Examples 1 to 6, a solution was prepared using methanol as a solvent so that the concentration of each component in the solution was 0.5 mg/mL. In order to confirm the antioxidant effect of Comparative Examples 1 to 4 and Examples 1 to 6, free radical scavenging ability was measured using a 1,1-diphenyl-2-picrylhydrazyl (DPPH) method. […] DPPH was used after being dissolved in methanol at a concentration of 0.12 mM.
Comparative Examples 1 to 4, Examples 1 to 6, and Trolox solutions by concentration (0.0125, 0.025, 0.05, 0.1, 0.2, 0.4, 0.8 mg/mL) were each put into a 24-well plate in an amount of 100 μL, and the DPPH solution was added in an amount of 1,900 μL. After blocking the light at room temperature and leaving it for 1 hour, the absorbance at 517 nm was measured using a microplate reader (BioTek EPOCH). A calibration curve according to the concentration was created using the absorbance values of the Trolox solution at 7 concentrations. In this experiment, Trolox is one indicator for measuring the antioxidative capacity of a sample, and the antioxidative capacity of each comparative example and example is a size compared to Trolox. The degree of antioxidant effect shown by 1 mL of the example solution by substituting the absorbance of the example solution into the calibration curve is expressed in Trolox μmol equivalents/mL and summarized in Table 2 below. The experiment was performed three times, and then an average value was calculated and shown.

## COc1cc(/C=C/C(=O)O)ccc1O [compound 2, Ferulic acid]
[1]
  Collagen Production rate (%): 8.8%
MNT-1 melanoma cells
  Melanin production Inhibition rate (%): 16.3%
Human skin keratinocytes
  Hyaluronic acid Production rate (%): 32.2%
[2]
  Trolox μmol equivalents/mL: 0.981 Trolox μmol equivalents/mL

## CCCCC/C=C\C/C=C\CCCCCCCC(=O)O [compound 4, Linoleic acid]
[1]
  Collagen Production rate (%): −2.5%
MNT-1 melanoma cells
  Melanin production Inhibition rate (%): 6.7%
Human skin keratinocytes
  Hyaluronic acid Production rate (%): 4.1%
[2]
  Trolox μmol equivalents/mL: 0.023 Trolox μmol equivalents/mL

## C[C@@H]1CC[C@H]2C(C)(C)[C@H]3C[C@@]12CC[C@@]3(C)O [compound 1, Cedrol]
[1]
  Collagen Production rate (%): 27.9%
MNT-1 melanoma cells
  Melanin production Inhibition rate (%): 17.5%
Human skin keratinocytes
  Hyaluronic acid Production rate (%): 5.6%
[2]
  Trolox μmol equivalents/mL: 0.104 Trolox μmol equivalents/mL

## CC[C@H](CC[C@@H](C)[C@H]1CC[C@H]2[C@@H]3CC=C4C[C@@H](O)CC[C@]4(C)[C@H]3CC[C@]12C)C(C)C [compound 3, Beta-sitosterol]
[1]
  Collagen Production rate (%): 2.4%
MNT-1 melanoma cells
  Melanin production Inhibition rate (%): 1.7%
Human skin keratinocytes
  Hyaluronic acid Production rate (%): −3.0%
[2]
  Trolox μmol equivalents/mL: 0.051 Trolox μmol equivalents/mL
